In patent US12397045B2, “Clostridioides difficile” (IMPERIAL COLLEGE OF SCIENCE, TECHNOLOGY AND MEDICINE, priority 2018, dated 2025):

Tests used:
[1] = tested on: 6 strains of C. difficile; assay: Valerate inhibition of 6 strains of C. difficile (change in OD600); assay type: cell-based, Clostridioides difficile; conditions: 0, 5, 10, 20 mM valerate
Description: Error bars represent mean±SD. **p<0.01;[…] (ANOVA and Tukey post hoc test), N=12.
As there are many strains of the C. difficile pathogen, the inventors extended the range of strains to determine how valerate inhibited growth (FIG. 32), and have also assessed the ability of valerate to target other species of bacteria (FIG. 33).

[2] = tested on: colonocyte cell line Caco2; assay: MTT viability assay of Caco2 cells; assay type: cell-based; conditions: 45 mM, 48 h
Method: A higher OD value represents greater viability.
The inventors determined to what extent the C5, C6 and C7 chain length fatty acids affect viability of the colonocyte cell line Caco2. Caco2 cells were grown until confluent in DMEM with serum and then trypsinised and diluted to 10^5 cells per ml and re-seeded into a 24 well plate and allowed to grow for a further 48 hours. At this point they were exposed to a 45 mM concentration of the SCFA or MCFA for 48 h and viability assessed using an MT assay.

CD010 = assay: Isovalerate inhibition of C. difficile growth; assay type: cell-based, Clostridioides difficile; conditions: strain CD010
Description: (§1) The inventors tested the ability of isovalerate to inhibit C. difficile growth (FIG. 36).

CD012 = assay: Isovalerate inhibition of C. difficile growth; assay type: cell-based, Clostridioides difficile; conditions: strain CD012
Description: as §1

[3] = tested on: C. difficile ribotype 027; assay: C. difficile batch cultures, vegetative growth with valerate (OD600); assay type: cell-based, Clostridioides difficile; conditions: sBHI broth pH 6.8, p=0.008
Method: (§2) Vegetative cells were inoculated into sBHI broth containing varying concentrations of valerate (o, 1, 2, 3, 4, 5, 10, and 20 mM) and OD600 measurements were taken at 0, 2, 4, 6, and 8 hours. The change in OD600 (from a time point during the exponential phase) was plotted against the concentrations of valerate tested. (a) C. difficile ribotype 010, (b) C. difficile ribotype 012, (c) C. difficile ribotype 027, (d) Bacteroides uniformis, (e) Bacteroides vulgatus, (f) Clostridium scindens. Error bars represent the mean standard deviation, * p<0.05, ** p<0.01, *** p<0.001.
(§3) The inventors tested the effects of valerate (Fisher Scientific) on the vegetative growth of three C. difficile ribotypes (010, 012, and 027) as well as several gut commensal bacteria (Bacteroides uniformis, Bacteroides vulgatus, and Clostridium scindens). […] The inventors plotted the changes in OD600 (from a time point during the exponential phase) against each concentration of valerate tested. The inventors used ANOVA and Tukey post hoc test to determine whether the concentration of valerate tested affected the growth of the test isolate compared to batch cultures grown in the absence of valerate.
(§4) C. difficile DS1684 (ribotype 010, non-toxigenic strain) was used for chemostat model experiments. C. difficile DS1684, C. difficile CD630 (ribotype 012, virulent multidrug resistant strain), C. difficile R20291 (ribotype 027, a hypervirulent strain), Bacteroides uniformis, Bacteroides vulgatus, and Clostridium scindens (DSM 5676) were used in batch culture experiments. C. difficile ribotype 027 is a common ribotype in Europe and North America,^1-3 while ribotype 012 is one of the common ribotypes in mainland China.^4,5 CD630 and R20291 are genetically and phenotypically well-characterised and are good representatives of their ribotypes.^6 B. uniformis and B. vulgatus were isolated from the stool of a healthy person using fastidious anaerobe agar (Lab M, Heywood, UK) or nutrient agar (Sigma-Aldrich, St. Louis, USA), respectively.

[4] = tested on: C. difficile ribotype 012; assay: as above; assay type: cell-based, Clostridioides difficile; conditions: sBHI broth pH 6.8, p=0.003
Method: as §2, §3, §4

[5] = tested on: C. difficile ribotype 010; assay: as above; assay type: cell-based, Clostridioides difficile; conditions: sBHI broth pH 6.8, p=0.008
Method: as §2, §3, §4

Clostridium scindens = assay: Batch cultures of gut commensal with valerate (OD600); assay type: cell-based; conditions: 0-20 mM valerate tested, p>0.05
Method: as §2, §3, §4

Bacteroides uniformis = assay: as above; assay type: cell-based; conditions: only concentration that inhibited, p=0.026
Method: as §2, §3, §4

Bacteroides vulgatus = assay: as above; assay type: cell-based
Method: as §2, §3, §4

C. difficile = assay: Growth inhibition of C. difficile with 20 mM short or medium chain fatty acids; assay type: cell-based, Clostridioides difficile; conditions: 20 mM fatty acid
Description: Acetate is a C2 chain and they increase by one carbon until heptanoate is reached which is C7.
The inventors assessed a range of short/medium chain fatty acids (S/MCFA).

gut organoids = conditions: 5 mM valerate; personal communication; cited from earlier work
CD 027 = assay: Isovalerate inhibition of C. difficile growth; assay type: cell-based, Clostridioides difficile; conditions: strain CD 027
Description: as §1

Compound	inhibition of growth of C. difficile strains [1]	viability of colonocytes [2]	inhibition of C. difficile growth (CD010)	inhibition of C. difficile growth (CD012)	valerate concentration inhibiting vegetative growth [3] [mM]	valerate concentration inhibiting vegetative growth [4] [mM]	valerate concentration inhibiting vegetative growth [5] [mM]	inhibition of growth by valerate (Clostridium scindens)	valerate concentration inhibiting growth (Bacteroides uniformis) [mM]	inhibition of growth by valerate (Bacteroides vulgatus; 0-20 mM valerate tested)	growth in broths containing valerate (Bacteroides vulgatus; 10 mM (p=0.020) or 20 mM (p=0.019) valerate)	inhibition of C. difficile growth (C. difficile)	cell death / alterations in gene expression (gut organoids)	inhibition of C. difficile growth (CD 027)	potency at inhibiting growth relative to valerate (C. difficile)	viability of colonocytes ([2]; listed as C6)
CCCCC(=O)O [valerate, valeric acid]	effective against all strains	do not significantly decrease	inhibited to a greater extent	inhibited to a greater extent	2	2	4	not inhibited at any concentration	20	not inhibited at any concentration	grew better	potent inhibitors	did not result in cell death or cause significant alterations in gene expression	–	–	–
CC(C)CC(=O)O [isovalerate]	–	–	significant ability to inhibit growth	significant ability to inhibit growth	–	–	–	–	–	–	–	–	–	comparable to valerate	–	–
CCCCCCC(=O)O [heptanoate, heptanoic acid]	–	do not significantly decrease	–	–	–	–	–	–	–	–	–	potent inhibitors	–	–	significantly more potent	–
CCCCCC(=O)O [hexanoate, hexanoic acid]	–	significantly increased	–	–	–	–	–	–	–	–	–	potent inhibitors	–	–	significantly more potent	do not significantly decrease
